Measurements: US20130195815A1, “METHOD FOR LABELING INSULIN-SECRETING PANCREATIC BETA CELLS AND OBTAINING PURIFIED INSULIN-SECRETING PANCREATIC B-CELLS AND AN INSULIN REPORTED” (NORTH CAROLINA CENTRAL UNIVERSITY, priority 2011, published 2013)

System: INS-1 cells
Test: GSIS assay: release of PPI-mCherry reporter into conditioned media (relative fluorescence)
Assay type: cell-based, rat
Settings: INS-1 cells transduced with PPI-mCherry, 2 h
Protocol: (HG—high glucose (25 mM): LG—low glucose (5.6 mM): Ex—10 nM: NF—nifedipine 10 μM, calcium channel blocker/inhibitor) (Y-axis=normalized fluorescent units—FLU).
The reporter system was tested in insulin secretion assays.
GSIS: INS-1 cells were transduced with PPI-mCherry and allowed to recover. […] Conditioned media was removed and spotted onto a membrane and relative fluorescence determined using an Odyssey CLx imager (Licor Corp).

PPI-mCherry: Genetically encoded preproinsulin-mCherry fluorescent protein reporter (SEQ ID NO: 1), delivered by pLenti vector
glucose stimulated release of the PPI-mCherry reporter (high vs low glucose): 1.7 fold
